Source: patent US4001325A, “α-Chloroacetanilide selective herbicides” (Diamond Shamrock Corporation, priority 1973, dated 1977)

Experiments:
Barnyardgrass = assay: Example 17 selective herbicidal activity in corn crop, weed kill; format: in vivo, Echinochloa crusgalli; settings: Echinochloa crus-galli, 3-4 weeks after planting
From the text: (§1) This example illustrates the selective herbicidal activity of two of the presently preferred compounds of this invention against various weed species in a corn crop.
(§2) Plots of light sandy soil, cleared of all weeds, are uniformly treated with aqueous dispersions prepared from an emulsifiable concentrate containing 2- 4 pounds of active ingredient per gallon. Diluted aqueous dispersions are applied as surface treatments at 2.0, 1.0, 0.5, and 0.25 pound of active ingredient per acre (lb/A).
(§3) The treated test plots are sown to corn and with seeds of the following weed species:
(§4) Three to four weeks after planting, the degree of damage to both the corn stands and the weed plants is assessed from a rating of 0% (no injury) to 100% (complete destruction).

Yellow Foxtail [1] = assay: Example 18 preemergence herbicide test in different soils, % control; format: in vivo; settings: three weeks
Description: (§5) To further illustrate the herbicidal activity of compounds of this invention in different types of soil as would be encountered in different crop growing localities, a preemergence herbicide test is conducted generally as outlined previously herein. Two light sandy soils are employed containing 0.7% and 1.8% organic matter (O.M.), respectively, along with two loam-type, heavier soils containing either 2.0% or 5-5.5% organic matter (O.M.).
(§6) The test plots are all sprayed uniformly with formulations of the test compounds providing 2.0, 1.0, 0.5, and 0.25 pound of active chemical per acre (lb/A).
(§7) Prior to treatment, the soil plots are sown to field corn, soybean, and grain sorghum crops and seeds of barnyard-grass and yellow foxtail.
Three weeks after planting, the percent control of plant growth is rated from 0% (no injury) to 100% (total destruction).

Corn [2] = assay: Field preemergence test, phytotoxic effects on crop; format: in vivo, sweet corn
From the text: (§8) Test plots of fertilized, light sandy soil containing 0.7% organic matter are sprayed uniformly with aqueous suspensions prepared from emulsifiable concentrates containing 12%, by weight, of the test chemicals diluted to provide dosage rates of the test compounds corresponding to 2.0, 1.0, 0.5, and 0.25 pound per acre (lb/A). The plots are then sown with seeds of the following crop plants: sweet corn, cotton (Coker 413) and soybeans, var. Davis. Seeds of the following weed plants are planted: redroot pigweed, prickly sida, common lambsquarter, goosegrass and giant foxtail.
Three to four weeks after planting, percent control (plant kill) of the test plants is estimated, from a rating of 0 which denotes no injury to the plant up to 100 which denotes complete destruction. The herbicidal action of the test compounds obtained on the weed species is as follows:
Phytotoxic effects observed on the crop species is estimated with results as follows: […]

Goosegrass = assay: Field preemergence test, weed control; format: in vivo; settings: 3-4 weeks after planting
From the text: as §8
(§9) Three to four weeks after planting, percent control (plant kill) of the test plants is estimated, from a rating of 0 which denotes no injury to the plant up to 100 which denotes complete destruction. The herbicidal action of the test compounds obtained on the weed species is as follows: […]

Common Lambsquarter = assay: Field preemergence test, weed control; format: in vivo; settings: 3-4 weeks after planting
From the text: as §8, §9

Yellow Foxtail [3] = assay: Example 17 selective herbicidal activity in corn crop, weed kill; format: in vivo, Setaria lutescens; settings: Setaria, 3-4 weeks after planting
From the text: as §1, §2, §3, §4

Corn [4] = assay: Example 18 phytotoxic effects on crop stands in different soils; format: in vivo, field corn
Description: as §5, §6, §7
Three weeks after planting, the percent control of plant growth is rated from 0% (no injury) to 100% (total destruction). The results obtained are as follows:
Phytotoxic effects on the crop stands are similarly rated with the following results: […]

Fall Panicum = assay: Example 17 selective herbicidal activity in corn crop, weed kill; format: in vivo; settings: Panicum dichotomiflorum, 3-4 weeks after planting
From the text: as §1, §2, §3, §4

Johnsongrass = assay: as above; format: in vivo; settings: Sorghum halepense, 3-4 weeks after planting
From the text: as §1, §2, §3, §4

Velvetleaf = assay: as above; format: in vivo; settings: Abutilon theophrasti, 3-4 weeks after planting
From the text: as §1, §2, §3, §4

[5] = 0.5 lb/A, Heavy Soil 5-5.5% O.M.
[6] = 0.5 lb/A, Medium Soil 2.0% O.M.
[7] = 1.0 lb/A, Heavy Soil 5-5.5% O.M.
[8] = 1.0 lb/A, Medium Soil 2.0% O.M.
[9] = 2.0 lb/A, Heavy Soil 5-5.5% O.M.
[10] = 2.0 lb/A, Medium Soil 2.0% O.M.

C#CCN(C(=O)CCl)c1c(CC)cccc1CC [Example 9, 2-Chloro-2',6'-diethyl-N-propargylacetanilide]
98%: mortality at 560.425 g/ha (Barnyardgrass; 0.5 lb/A) | mortality at 1120.85 g/ha (Barnyardgrass; 1.0 lb/A) | % Weed Control, Goosegrass (Goosegrass; 0.5 lb/A)
73%: mortality at 280.212 g/ha (Fall Panicum; 0.25 lb/A)
18%: mortality at 2241.7 g/ha (Velvetleaf; 2.0 lb/A)
68%: mortality at 280.212 g/ha (Barnyardgrass; 0.25 lb/A)
70%: % Control, Yellow Foxtail (Yellow Foxtail [1]; 1.0 lb/A, Sand 0.7% O.M.)
80%: % Control, Yellow Foxtail (Yellow Foxtail [1]; 1.0 lb/A, Sand 1.8% O.M.) | mortality at 280.212 g/ha (Yellow Foxtail [3]; 0.25 lb/A) | mortality at 1120.85 g/ha (Johnsongrass; 1.0 lb/A)
88%: mortality at 560.425 g/ha (Fall Panicum; 0.5 lb/A)
10%: % Phytotoxicity, Corn (Corn [4]; [9]) | % Phytotoxicity, Corn (Corn [4]; [10])
100%: mortality at 2241.7 g/ha (Barnyardgrass; 2.0 lb/A) | % Control, Yellow Foxtail (Yellow Foxtail [1]; [7]) | % Control, Yellow Foxtail (Yellow Foxtail [1]; [8]) | % Control, Yellow Foxtail (Yellow Foxtail [1]; [9]) | % Control, Yellow Foxtail (Yellow Foxtail [1]; [10]) | % Control, Yellow Foxtail (Yellow Foxtail [1]; 2.0 lb/A, Sand 0.7% O.M.) | % Control, Yellow Foxtail (Yellow Foxtail [1]; 2.0 lb/A, Sand 1.8% O.M.) | % Weed Control, Goosegrass (Goosegrass; 1.0 lb/A) | % Weed Control, Goosegrass (Goosegrass; 2.0 lb/A) | % Weed Control, Common Lambsquarter (Common Lambsquarter; 0.5 lb/A) | % Weed Control, Common Lambsquarter (Common Lambsquarter; 1.0 lb/A) | % Weed Control, Common Lambsquarter (Common Lambsquarter; 2.0 lb/A) | mortality at 1120.85 g/ha (Yellow Foxtail [3]; 1.0 lb/A) | mortality at 2241.7 g/ha (Yellow Foxtail [3]; 2.0 lb/A) | mortality at 2241.7 g/ha (Fall Panicum; 2.0 lb/A) | mortality at 2241.7 g/ha (Johnsongrass; 2.0 lb/A)
95%: % Weed Control, Common Lambsquarter (Common Lambsquarter; 0.25 lb/A) | mortality at 560.425 g/ha (Yellow Foxtail [3]; 0.5 lb/A) | mortality at 1120.85 g/ha (Fall Panicum; 1.0 lb/A)
3%: % Crop Kill, Corn (Corn [2]; 2.0 lb/A)
94%: % Weed Control, Goosegrass (Goosegrass; 0.25 lb/A)
37%: mortality at 560.425 g/ha (Johnsongrass; 0.5 lb/A)
90%: % Control, Yellow Foxtail (Yellow Foxtail [1]; [5]) | % Control, Yellow Foxtail (Yellow Foxtail [1]; [6])
0%: % Crop Kill, Corn (Corn [2]; 1.0 lb/A) | % Phytotoxicity, Corn (Corn [4]; [5]) | % Phytotoxicity, Corn (Corn [4]; [6]) | % Phytotoxicity, Corn (Corn [4]; 0.5 lb/A, Sand 0.7% O.M.) | % Phytotoxicity, Corn (Corn [4]; 0.5 lb/A, Sand 1.8% O.M.) | % Phytotoxicity, Corn (Corn [4]; [7]) | % Phytotoxicity, Corn (Corn [4]; [8]) | % Phytotoxicity, Corn (Corn [4]; 1.0 lb/A, Sand 0.7% O.M.) | % Phytotoxicity, Corn (Corn [4]; 1.0 lb/A, Sand 1.8% O.M.) | % Phytotoxicity, Corn (Corn [4]; 2.0 lb/A, Sand 0.7% O.M.) | % Phytotoxicity, Corn (Corn [4]; 2.0 lb/A, Sand 1.8% O.M.) | mortality at 280.212 g/ha (Johnsongrass; 0.25 lb/A) | mortality at 280.212 g/ha (Velvetleaf; 0.25 lb/A) | mortality at 560.425 g/ha (Velvetleaf; 0.5 lb/A)
50%: % Control, Yellow Foxtail (Yellow Foxtail [1]; 0.5 lb/A, Sand 0.7% O.M.)
6%: mortality at 1120.85 g/ha (Velvetleaf; 1.0 lb/A)
85%: % Control, Yellow Foxtail (Yellow Foxtail [1]; 0.5 lb/A, Sand 1.8% O.M.)
